Our source for the IC50 values is patent publication US7989460B2, “Quinazoline derivatives as angiogenesis inhibitors” (AstraZeneca AB, priority 2003, dated 2011).

The target of test [1] is T1, KDR (Homo sapiens, UniProt P35968).
T1 construct: made in house; host or cells: insect cells (Spodoptera frugiperda Sf21, baculovirus)
The test is described as follows: In vitro receptor tyrosine kinase inhibition test (a), enzyme assay against KDR. In kind it is biochemical. To be noted: KDR cytoplasmic domain. From the text: (a) In Vitro Receptor Tyrosine Kinase Inhibition Test
This assay determines the ability of a test compound to inhibit tyrosine kinase activity. DNA encoding VEGF, FGF or EGF receptor cytoplasmic domains may be obtained by total gene synthesis (Edwards M, International Biotechnology Lab 5(3), 19-25, 1987) or by cloning. These may then be expressed in a suitable expression system to obtain polypeptide with tyrosine kinase activity. […] In the case of the VEGF receptor Flt-1 (Genbank accession number X51602), a 1.7 kb DNA fragment encoding most of the cytoplasmic domain, commencing with methionine 783 and including the termination codon, described by Shibuya et al (Oncogene, 1990, 5: 519-524), was isolated from cDNA and cloned into a baculovirus transplacement vector (for example pAcYM1 (see The Baculovirus Expression System: A Laboratory Guide, L. A. King and R. D. Possee, Chapman and Hall, 1992) or pAc360 or pBlueBacHis (available from Invitrogen Corporation)). This recombinant construct was co-transfected into insect cells (for example Spodoptera frugiperda 21(5f21)) with viral DNA (eg Pharmingen BaculoGold) to prepare recombinant baculovirus. […]

Test [2] deals with T2, human ether-a-go-go-related-gene (hERG)-encoded potassium channel (Homo sapiens, UniProt Q12809).
T2 construct: expressed in transfected cells; host or cells: Human embryonic kidney (HEK) cells
T2 sequence (Q12809 whole entry): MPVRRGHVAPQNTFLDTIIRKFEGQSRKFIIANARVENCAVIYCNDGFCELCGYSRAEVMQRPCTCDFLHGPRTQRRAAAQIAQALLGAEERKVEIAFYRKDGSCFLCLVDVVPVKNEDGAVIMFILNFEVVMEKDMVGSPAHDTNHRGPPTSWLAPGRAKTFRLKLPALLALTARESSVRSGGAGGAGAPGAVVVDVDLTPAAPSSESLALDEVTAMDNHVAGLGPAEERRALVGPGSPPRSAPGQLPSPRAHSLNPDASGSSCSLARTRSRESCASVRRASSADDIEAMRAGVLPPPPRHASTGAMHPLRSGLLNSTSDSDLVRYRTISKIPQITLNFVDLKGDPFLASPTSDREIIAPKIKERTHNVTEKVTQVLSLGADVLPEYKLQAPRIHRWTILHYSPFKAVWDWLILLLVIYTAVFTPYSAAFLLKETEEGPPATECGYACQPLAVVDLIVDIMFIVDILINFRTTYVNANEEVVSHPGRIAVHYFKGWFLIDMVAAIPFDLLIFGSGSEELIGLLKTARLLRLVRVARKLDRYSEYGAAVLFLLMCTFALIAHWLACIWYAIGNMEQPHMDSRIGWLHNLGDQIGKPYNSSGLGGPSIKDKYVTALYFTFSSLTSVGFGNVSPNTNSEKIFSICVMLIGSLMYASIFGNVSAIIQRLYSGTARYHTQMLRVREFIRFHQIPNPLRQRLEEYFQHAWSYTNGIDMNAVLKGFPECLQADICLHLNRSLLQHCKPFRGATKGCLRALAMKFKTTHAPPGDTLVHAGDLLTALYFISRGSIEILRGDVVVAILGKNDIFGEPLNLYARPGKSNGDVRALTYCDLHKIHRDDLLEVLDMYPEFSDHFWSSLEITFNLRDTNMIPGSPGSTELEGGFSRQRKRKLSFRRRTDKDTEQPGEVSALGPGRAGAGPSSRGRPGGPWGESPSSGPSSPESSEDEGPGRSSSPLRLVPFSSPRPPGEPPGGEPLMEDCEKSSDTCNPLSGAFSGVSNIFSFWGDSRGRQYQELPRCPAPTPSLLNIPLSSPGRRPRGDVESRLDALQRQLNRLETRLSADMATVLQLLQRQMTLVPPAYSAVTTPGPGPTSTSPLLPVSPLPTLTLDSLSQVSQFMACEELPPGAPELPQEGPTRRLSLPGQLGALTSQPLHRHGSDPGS
Briefly: hERG-encoded potassium channel inhibition test (d). In kind it is cell-based. Conditions: HEK cells expressing hERG-encoded channel, tail current, whole cell patch clamp. As for the experimental part: d) hERG-encoded Potassium Channel Inhibition Test
This assay determines the ability of a test compound to inhibit the tail current flowing through the human ether-a-go-go-related-gene (hERG)-encoded potassium channel.
Human embryonic kidney (HEK) cells expressing the hERG-encoded channel were grown in Minimum Essential Medium Eagle (EMEM; Sigma-Aldrich catalogue number M2279), supplemented with 10% Foetal Calf Serum (Labtech International; product number 4-101-500), 10% M1 serum-free supplement (Egg Technologies; product number 70916) and 0.4 mg/ml Geneticin G418 (Sigma-Aldrich; catalogue number G7034). […]
For each cell recorded, a glass coverslip containing the cells was placed at the bottom of a Perspex chamber containing bath solution (see below) at ambient temperature ([…]). […]
The cell was recorded in the whole cell configuration of the patch clamp technique. […]
The amplitude of the hERG-encoded potassium channel tail current following the step from +40 mV to −50 mV was recorded on-line by Clampex software (Axon Instruments). […]
The effect of each concentration of test compound was quantified by expressing the tail current amplitude in the presence of a given concentration of test compound as a percentage of that in the presence of vehicle. […]

T1 sequence (P35968 786-1356 limits assumed): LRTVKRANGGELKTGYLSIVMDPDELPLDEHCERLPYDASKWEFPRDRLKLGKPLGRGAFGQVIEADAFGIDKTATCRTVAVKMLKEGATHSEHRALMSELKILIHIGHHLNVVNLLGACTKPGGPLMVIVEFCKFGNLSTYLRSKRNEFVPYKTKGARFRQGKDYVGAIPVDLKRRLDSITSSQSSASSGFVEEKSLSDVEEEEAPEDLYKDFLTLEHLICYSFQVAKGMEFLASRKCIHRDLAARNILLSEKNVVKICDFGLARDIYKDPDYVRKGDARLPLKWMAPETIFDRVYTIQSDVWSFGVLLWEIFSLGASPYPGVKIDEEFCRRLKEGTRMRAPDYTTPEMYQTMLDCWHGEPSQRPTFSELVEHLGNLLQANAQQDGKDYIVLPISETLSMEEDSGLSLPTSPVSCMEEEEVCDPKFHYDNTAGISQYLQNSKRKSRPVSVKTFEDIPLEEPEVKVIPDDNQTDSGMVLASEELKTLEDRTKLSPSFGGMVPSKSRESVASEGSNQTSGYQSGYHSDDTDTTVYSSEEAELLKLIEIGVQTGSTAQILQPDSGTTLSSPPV

On to `COc1cc2c(Oc3ccc4[nH]c(C)c(C)c4c3)ncnc2cc1OCCN1CCN(CC(C)=O)CC1` [Example 11, 7-{2-[4-(acetylmethyl)piperazin-1-yl]ethoxy}-4-[(2,3-dimethyl-1H-indol-5-yl)oxy]-6-methoxyquinazoline], for which the IC50 stood at 0.104 µM in test [1] and 10.1 µM in test [2].
